Laboratory results taken from patent US20050147989A1 (priority 2003, published 2005).

Biological target: association reaction between recombinantly prepared mouse PrP (amino acids 23-231) and PrP-Sc aggregates prepared from the brain tissue of CJD patients (UniProt P04156+P04925)
Format: binding, human PrP-Sc (CJD patients); mouse PrP
Conditions: for influence on association of fluorescence-labeled recombinant PrP to prion aggregates: SIFT, 20 mM potassium phosphate buffer, pH 6.0, 0.1% Nonidet-P40

Row | Structure (SMILES) | influence on association of fluorescence-labeled recombinant PrP to prion aggregates | number of bins per sector in two-dimensional histograms of the fluorescence intensity (FIG. 4, two-dimensional SIFT evaluation by sectors)
1 | CCCCCCCC/C=C\CCCCCCCC(=O)OC[C@H](COP(=O)(O)OCCN)OC(=O)CCCCCCC/C=C\CCCCCCCC [DOPE, dioleyl-L-phosphatidylethanolamine] | no influence on aggregation was found | 
2 | CCCCCCCC/C=C\CCCCCCCCOCC(C[N+](C)(C)CCNC(=O)C(CCCNCCCN)NCCCN)OCCCCCCCC/C=C\CCCCCCCC.O=C([O-])C(F)(F)F (stereo not drawn) [DOSPA, 2,3-dioleyloxy-N-[2-(sperminecarboxamido)ethyl]-N,N-dimethyl-1-propanaminium trifluoroacetate] | inhibits the association of fluorescence-labeled recombinant PrP to prion aggregates at low micromolar concentrations | number of bins is decreased in sectors 1 to 9
